Source: US20180042941A1, “CABAZITAXEL AND ITS USE FOR TREATING METASTATIC PROSTATE CANCERS” (AVENTIS PHARMA S.A., priority 2013, published 2018)

Assays:
[1] = tested on: tumor models poorly or not sensitive to chemotherapy, including taxanes; details: cited from earlier work
[2] = tested on: patient with metastatic prostate cancer; test: case reports of patients treated with cabazitaxel in combination with prednisone or prednisolone (adverse events); details: for WBC level: units not provided
Experimental: This example relates to the treatment of a patient with metastatic prostate cancer, according the following dosage: cabazitaxel (25 mg/m^2)+prednisone 10 mg daily+budesonide (9 mg daily).
This example relates to a patient (with prostate carcinoma) who initiated treatment with study drug cabazitaxel (20 mg/m^2) and prednisone (10 mg) (cycle 1).
This example relates to the treatment of a patient with a metastatic carcinoma of the prostate, according the following dosage: cabazitaxel 20 mg/m^2 intravenously (day 1) every 3 weeks and prednisone 10 mg PO daily, from day 1 continuously.
The treatment was as follows: cabazitaxel 20 mg/m^2 on day 1 every 3 weeks in combination with prednisone/prednisolone.
The following treatment was followed: cabazitaxel 25 mg/m^2 on day 1 every 3 weeks in combination with prednisone/prednisolone.
The dosage regimen was as follows: cabazitaxel 25 mg/m^2 intravenous infusion over 1 hour on day 1 of each 3 week cycle as well as oral prednisone/prednisolone 10 mg daily.
The following treatment was applied: cabazitaxel 20 mg/m^2 intravenously every 3 weeks, in combination with oral prednisone or prednisolone 10 mg daily.
This example relates to a patient with metastatic prostate cancer. The following treatment was followed: cabazitaxel 25 mg/m^2 intravenously (day 1) every 3 weeks and prednisone 10 mg PO daily, from day 1 continuously.
This patient was treated with cabazitaxel 20 mg/m^2 on day 1 every 3 weeks in combination with prednisone/prednisolone.
The following therapy dosage was used: cabazitaxel 25 mg/m^2 intravenously (day 1) every 3 weeks, plus prednisone 10 mg orally daily.
The therapy was as follows: the patient received cabazitaxel 25 mg/m^2 intravenous infusion over 1 hour on day 1 of each 3 week cycle as well as oral prednisone/prednisolone 10 mg daily.
The following dosage regimen was used: cabazitaxel 25 mg/m^2 on day 1 every 3 weeks in combination with prednisone/prednisolone.
This example relates to a patient with metastatic castration resistant prostate cancer not pretreated with chemotherapy. The following therapy was applied: cabazitaxel 25 mg/m^2 intravenously (day 1) every 3 weeks. Prednisone 10 mg PO daily, from day 1 continuously.
This example relates to a patient with metastatic castration resistant prostate cancer not pretreated with chemotherapy, having the following therapy: cabazitaxel 25 mg/m^2 intravenously (day 1) every 3 weeks and prednisone 10 mg PO daily, from day 1 continuously.
This example relates to a patient with metastatic castration resistant prostate cancer not pre-treated with chemotherapy. The following therapy was applied: cabazitaxel 20 mg/m^2 intravenously (day 1) every 3 weeks, prednisone 10 mg PO daily, from day 1 continuously.
The following dosage regimen was applied: cabazitaxel 25 mg/m^2 intravenously every 3 weeks, in combination with oral prednisone or prednisolone 10 mg daily.
The therapy involved the administration of cabazitaxel on day 1 every 3 weeks in combination with prednisone.
The following therapy was applied: cabazitaxel 25 mg/m^2 on day 1 every 3 weeks in combination with prednisolone.
The following dosage regimen was applied: cabazitaxel 20 mg/m^2 intravenously (day 1) every 3 weeks and prednisone 10 mg PO daily, from day 1 continuously.
The following dosage regimen was applied: cabazitaxel 20 mg/m^2 on day 1 every 3 weeks in combination with prednisolone.
The following dosage regimen was applied: cabazitaxel 25 mg/m^2 on day 1 every 3 weeks in combination with prednisone.
The applied dosage regimen was as follows: cabazitaxel 25 mg/m^2 intravenous infusion over 1 hour on day 1 of each 3 week cycle as well as oral prednisone 10 mg daily.

[3] = tested on: patients treated with cabazitaxel; details: cited from earlier work
tubulin = details: resulting in inhibition of microtubule depolymerization and tumor cell proliferation; cited from earlier work
[4] = Ex 3, cabazitaxel 25 mg/m^2 + prednisone + budesonide
[5] = Ex 5, cabazitaxel 20 mg/m^2 + prednisone, cycle 4, day 5
[6] = Ex 5, cabazitaxel 20 mg/m^2 + prednisone, during hospitalization
[7] = Ex 7, cabazitaxel 25 mg/m^2 + prednisone
[8] = Ex 7, cabazitaxel 25 mg/m^2 + prednisone, day 9 of first cycle
[9] = Ex 12, cabazitaxel 25 mg/m^2 + prednisone
[10] = Ex 16, cabazitaxel 25 mg/m^2 + prednisolone
[11] = Ex 16, cabazitaxel 25 mg/m^2 + prednisolone, five days after hospitalization
[12] = Ex 20, cabazitaxel 25 mg/m^2 + prednisolone, after intensive care
[13] = Ex 20, cabazitaxel 25 mg/m^2 + prednisolone, on admission

## CO[C@H]1C(=O)[C@]2(C)[C@@H](OC)C[C@H]3OC[C@@]3(OC(C)=O)[C@H]2[C@H](OC(=O)c2ccccc2)[C@]2(O)C[C@H](OC(=O)[C@H](O)[C@@H](NC(=O)OC(C)(C)C)c3ccccc3)C(C)=C1C2(C)C [cabazitaxel, 4α-acetoxy-2α-benzoyloxy-5β,20-epoxy-1β-hydroxy-7β,10β-dimethoxy-9-oxo-11-taxen-13α-yl (2R,3S)-3-tert-butoxycarbonyl-amino-2-hydroxy-3-phenylpropionate]
[1]
  activity in tumor models: active
[2]; Ex 1, cabazitaxel 20 mg/m^2 + prednisone, ten days after antisecretory and antiulcer therapy
  control fibrogastroscopy finding: atrophic gastritis
[2]; Ex 1, cabazitaxel 20 mg/m^2 + prednisone, ten days after onset of epigastric pain
  outcome of event: fully recovered
[2]; Ex 1, patient, cabazitaxel 20 mg/m^2 every 3 weeks + prednisone 10 mg daily, 15th day of cycle 1
  adverse event complained of: epigastric pain
[2]; Ex 1, patient, cabazitaxel 20 mg/m^2 every 3 weeks + prednisone 10 mg daily, two days after 15th day of cycle 1
  fibrogastroduodenoscopy finding: acute ulcer in the small curvature
[2]; Ex 2, cabazitaxel 20 mg/m^2 + prednisone, during 7th cycle
  colonic spasm (grade): grade 2 to grade 1
[2]; Ex 2, cabazitaxel 20 mg/m^2 + prednisone, three days later
  outcome of colitis: recovered
[2]; Ex 2, patient, cabazitaxel 20 mg/m^2 every 3 weeks + prednisone 10 mg daily, 75 days after first, 6 days after most recent dose (cycle 4)
  colitis (grade): 3
[2]; [4]
  colitis (grade): 2
  outcome of events: no more episodes of SVT or diarrhea
[2]; Ex 3, cabazitaxel 25 mg/m^2 + prednisone + budesonide, 45 days after first dose, normal 4-10
  white blood cell (WBC): 6.9
[2]; Ex 3, cabazitaxel 25 mg/m^2 + prednisone + budesonide, 45 days after first dose, normal 8.5-11
  haemoglobin: 7.3
[2]; Ex 3, cabazitaxel 25 mg/m^2 + prednisone + budesonide, 45 days after first dose, normal 60-110
  creatinine: 94
[2]; Ex 3, cabazitaxel 25 mg/m^2 + prednisone + budesonide, 45 days after first, 3 days after most recent dose
  supraventricular tachycardia with angina (grade): 3
[2]; Ex 3, cabazitaxel 25 mg/m^2 + prednisone + budesonide, six days later
  sigmoidoscopy finding: severe colitis
[2]; Ex 3, patient, cabazitaxel 25 mg/m^2 + prednisone 10 mg daily + budesonide 9 mg daily, 43 days after first, 1 day after most recent dose
  diarrhea: slight diarrhea
[2]; Ex 4, cabazitaxel 20 mg/m^2 + prednisone, during enterocolitis
  neutropenia: no neutropenia
[2]; Ex 4, cabazitaxel 20 mg/m^2 + prednisone, three days later
  outcome of event: recovered
[2]; Ex 4, patient, cabazitaxel 20 mg/m^2 + prednisone 10 mg, 145 days after first, 7 days after most recent dose (cycle 7)
  enterocolitis (grade): 3
[2]; [5]
  gastritis (grade): 2
  nausea (grade): 2
[2]; [6]
  WBC decrease (grade): 3
  WBC level: 2720
[2]; Ex 5, cabazitaxel 20 mg/m^2 + prednisone, leukopenia three days after corrective treatment, hypotension, nausea and gastritis one day later
  outcome of events: recovered
[2]; Ex 5, cabazitaxel 20 mg/m^2 + prednisone, on the day after
  WBC level: 1000
[2]; Ex 5, patient, cabazitaxel 20 mg/m^2 every 3 weeks + prednisone 10 mg daily, cycle 4, day 5
  hypotension (grade): 2
[2]; Ex 6, cabazitaxel 20 mg/m^2 + prednisone, day 7 of cycle 1
  pneumonia (grade): 4
[2]; Ex 6, cabazitaxel 20 mg/m^2 + prednisone, one day later, due to paralytic ileus and pneumonia
  outcome: died
[2]; Ex 6, patient, cabazitaxel 20 mg/m^2 every 3 weeks + prednisone, day 4 of cycle 1
  paralytic ileus (grade): 4
[2]; [7]
  time to recovery from colitis: 9 days
  time to recovery from neutropenia: 5 days
[2]; [8]
  diarrhea with blood in feces, number of episodes: more than 10 episodes
  neutropenia (grade): 4
[2]; Ex 7, cabazitaxel 25 mg/m^2 + prednisone, neutropenic colitis, day 9 of first cycle
  colitis (grade): 3
[2]; Ex 7, patient, cabazitaxel 25 mg/m^2 every 3 weeks + prednisone 10 mg, day 9 of first cycle
  absolute neutrophil count: 0.01
[2]; Ex 8, cabazitaxel 25 mg/m^2 + prednisone/prednisolone
  clostridium difficile infection (grade): 3
[2]; Ex 8, cabazitaxel 25 mg/m^2 + prednisone/prednisolone, 5th day of cycle 1
  neutropenia (grade): 3
[2]; Ex 8, cabazitaxel 25 mg/m^2 + prednisone/prednisolone, six days later
  outcome: recovered
[2]; Ex 8, cabazitaxel 25 mg/m^2 + prednisone/prednisolone, two days later
  neutropenia (grade): 4
[2]; Ex 8, patient, cabazitaxel 25 mg/m^2 every 3 weeks + prednisone/prednisolone 10 mg daily, 5th day of cycle 1
  diarrhea (grade): 2
[2]; Ex 9, cabazitaxel 20 mg/m^2 + prednisolone, 5 days after initial hospitalization
  outcome: death
[2]; Ex 9, cabazitaxel 20 mg/m^2 + prednisolone, day following admission
  neutrophil count: 0.4
[2]; Ex 9, cabazitaxel 20 mg/m^2 + prednisolone, final diagnosis
  neutropenic colitis (grade): 4
[2]; Ex 9, patient, cabazitaxel 20 mg/m^2 every 3 weeks + prednisolone 10 mg daily, four days after second administration
  diagnosis at hospitalization: acute bowel obstruction
[2]; Ex 10, cabazitaxel 25 mg/m^2 + prednisone
  neutropenic colitis (grade): 4
[2]; Ex 10, cabazitaxel 25 mg/m^2 + prednisone, one day later, normal 1.4-7.7
  neutrophil count: 1e+08 L⁻¹
[2]; Ex 10, cabazitaxel 25 mg/m^2 + prednisone, readmission two days after discharge
  fever (grade): 1
[2]; Ex 10, cabazitaxel 25 mg/m^2 + prednisone, three days after readmission
  outcome of event: resolved
[2]; Ex 10, patient, cabazitaxel 25 mg/m^2 every 3 weeks + prednisone 10 mg daily, 7 days after first cycle
  diarrhea (grade): 2
[2]; Ex 11, cabazitaxel 20 mg/m^2 + prednisone/prednisolone, nine days after last dose
  diagnosis: Neutropenic infection (colitis)
[2]; Ex 11, cabazitaxel 20 mg/m^2 + prednisone/prednisolone, nine days after last dose, NR 150×10^3-450×10^3
  platelet count: 93 ×10^3 cells/mm^3
[2]; Ex 11, cabazitaxel 20 mg/m^2 + prednisone/prednisolone, nine days after last dose, NR <0.5
  CRP: 0.39 mg/dL
[2]; Ex 11, cabazitaxel 20 mg/m^2 + prednisone/prednisolone, nine days after last dose, normal 1.7×10^3-8.0×10^3
  neutrophils: 1.12 ×10^3 cells/mm^3
[2]; Ex 11, cabazitaxel 20 mg/m^2 + prednisone/prednisolone, two days after admission
  outcome: recovered
[2]; Ex 11, patient, cabazitaxel 20 mg/m^2 every 3 weeks + prednisone/prednisolone, nine days after last dose, normal 3.5×10^3-10.5×10^3
  WBC: 2.41 ×10^3 cells/mm^3
[2]; [9]
  enterocolitis (grade): 4
  febrile neutropenia (grade): 4
  renal failure (grade): 4
  septic shock (grade): 4
[2]; Ex 12, cabazitaxel 25 mg/m^2 + prednisone, 2 days after admission, septic shock secondary to neutropenic enterocolitis
  outcome: expired
[2]; Ex 12, cabazitaxel 25 mg/m^2 + prednisone, 13 days after first dose
  fever: 38.5 °C
[2]; Ex 12, patient, cabazitaxel 25 mg/m^2 every 3 weeks + prednisone 10 mg daily, 13 days after first dose
  lower abdominal pain (grade): 3
[2]; Ex 13, cabazitaxel 25 mg/m^2 + prednisone/prednisolone, cause of death reported as progression of disease
  outcome: died
[2]; Ex 13, patient, cabazitaxel 25 mg/m^2 every 3 weeks + prednisone/prednisolone 10 mg daily, ten days after first cycle
  diagnosis at hospitalization: neutropenic enterocolitis and sepsis
[2]; Ex 14, cabazitaxel 25 mg/m^2 + prednisone, nine days after hospitalization
  outcome: recovered
[2]; Ex 14, patient, cabazitaxel 25 mg/m^2 every 3 weeks + prednisone, 232 days after first, 14 days after most recent dose (cycle 9)
  adverse event: neutropenic enteritis
[2]; Ex 15, cabazitaxel 25 mg/m^2 + prednisone, 4 days later
  outcome: recovered
[2]; Ex 15, cabazitaxel 25 mg/m^2 + prednisone, bacteriological tests later negative
  video coloscopy finding: probable infectious colitis
[2]; Ex 15, cabazitaxel 25 mg/m^2 + prednisone, cycle 6, 111 days after first, 6 days after last administration
  rectal bleeding (grade): 1
[2]; Ex 15, patient, cabazitaxel 25 mg/m^2 every 3 weeks + prednisone 10 mg daily, 108 days after first administration
  diarrhea (grade): 1
[2]; [10]
  SAH (subarachnoid hemorrhage) (grade): 2
  urinary tract infection (grade): 3
[2]; Ex 16, cabazitaxel 25 mg/m^2 + prednisolone, day 17 of cycle 1
  gastritis, final diagnosis (grade): 3
[2]; [11]
  DIC (grade): 4
  INR: 1.6
[2]; Ex 16, cabazitaxel 25 mg/m^2 + prednisolone, three days later
  outcome of gastritis: recovered
[2]; Ex 16, patient, cabazitaxel 25 mg/m^2 every 3 weeks + prednisolone 10 mg, day 17 of cycle 1
  ulcus ventriculi, initial suspicion (grade): 3
[2]; Ex 17, cabazitaxel 20 mg/m^2 + prednisone, seven days after hospitalization
  outcome: recovered
[2]; Ex 17, patient, cabazitaxel 20 mg/m^2 every 3 weeks + prednisone 10 mg daily, 42 days after first, 21 days after most recent dose, life-threatening
  adverse event (confirmed by emergency surgery): perforation of ulcer
[2]; Ex 18, cabazitaxel 25 mg/m^2 + prednisone or prednisolone
  outcome of duodenal ulcers: recovered
[2]; Ex 18, cabazitaxel 25 mg/m^2 + prednisone or prednisolone, day 26 of cycle 1
  acute cystitis (grade): 1
[2]; Ex 18, patient, cabazitaxel 25 mg/m^2 every 3 weeks + prednisone or prednisolone 10 mg daily, four days after day 16 of cycle 1
  duodenal ulcers (grade): 1
[2]; Ex 19, cabazitaxel + prednisone, 128 days after first dose, reference 42-52
  haematocrit: 16.33%
[2]; Ex 19, cabazitaxel + prednisone, 128 days after first, 20 days after last dose, life threatening
  digestive haemorrhage (grade): 4
[2]; Ex 19, cabazitaxel + prednisone, discharged 9 days after hospitalization
  outcome: recovered
[2]; Ex 19, patient, cabazitaxel every 3 weeks + prednisone, 128 days after first, 20 days after last dose, reference 13.0-16.0
  haemoglobin: 51.2 g/L
[2]; [12]
  haematocrit: 19.5%
  haemoglobin: 72 g/L
  platelets: 142 ×10^9
[2]; Ex 20, cabazitaxel 25 mg/m^2 + prednisolone, fifteen days after hospitalization
  outcome: recovered
[2]; [13]
  haematocrit: 19%
  haemoglobin: 59 g/L
[2]; Ex 20, cabazitaxel 25 mg/m^2 + prednisolone, thirteen days after hospitalization, units not specified, 180-320 thousand in 1 mcl
  platelet: 122
[2]; Ex 20, patient, cabazitaxel 25 mg/m^2 every 3 weeks + prednisolone, 17 days after first dose, life threatening
  intestinal haemorrhage (grade): 4
[2]; Ex 21, cabazitaxel 20 mg/m^2 + prednisone
  adverse event during hospital stay: febrile neutropenia
[2]; Ex 21, cabazitaxel 20 mg/m^2 + prednisone, one day after discharge
  outcome: recovered
[2]; Ex 21, patient, cabazitaxel 20 mg/m^2 every 3 weeks + prednisone 10 mg daily, cycle 2, most likely secondary to adhesions
  small bowel obstruction (grade): 4
[2]; Ex 22, cabazitaxel 20 mg/m^2 + prednisolone, three days later, after laproscopy
  outcome: recovered
[2]; Ex 22, patient, cabazitaxel 20 mg/m^2 every 3 weeks + prednisolone, cycle 9, 181 days after first, 13 days after most recent dose
  small intestinal obstruction (grade): 3
[2]; Ex 23, cabazitaxel 25 mg/m^2 + prednisone
  general weakness (grade): 3
[2]; Ex 23, cabazitaxel 25 mg/m^2 + prednisone, 85 days after first, 1 day after most recent dose
  red blood loss per anum (grade): 1
[2]; Ex 23, cabazitaxel 25 mg/m^2 + prednisone, 117 days after first dose, due to disease progression
  outcome: died
[2]; Ex 23, cabazitaxel 25 mg/m^2 + prednisone, five days after day 95
  pathologic fracture lumbar spine 1 (grade): 3
[2]; Ex 23, cabazitaxel 25 mg/m^2 + prednisone, two days after hospitalization
  outcome of red blood loss per anum and hematuria: recovered
[2]; Ex 23, patient, cabazitaxel 25 mg/m^2 every 3 weeks + prednisone, 85 days after first, 1 day after most recent dose
  hematuria (grade): 3
[2]; Ex 24, cabazitaxel 25 mg/m^2 + prednisone, about a month after hospitalization, unknown cause, colitis ongoing
  outcome: died
[2]; Ex 25, cabazitaxel 20 mg/m^2 + prednisone
  time to resolution of ileus: 13 days
[2]; Ex 25, cabazitaxel 20 mg/m^2 + prednisone, 215 days after first, 6 days after most recent dose
  mechanical ileus due to unclear cause (grade): 2
[2]; Ex 25, patient, cabazitaxel 20 mg/m^2 every 3 weeks + prednisone 10 mg daily, 214 days after first dose
  diagnosis: ileus
[3]
  gastrointestinal adverse reactions reported: Gastrointestinal (GI) hemorrhage and perforation, ileus, colitis, including fatal outcome
tubulin
  action on tubulin: binds to and stabilizes tubulin
